Measurements published in patent publication US20050214894A1, “High throughput assay” (priority 2004, published 2005).

Experiments:
FIH = target: T1, FIH (Homo sapiens, UniProt Q9NWT6); assay: FIH activity assay: 2-OG consumption detected by OPD derivatisation and fluorescence; format: biochemical; conditions: for effect on 2-OG consumption by FIH: inhibitor 1 mM, in the presence of prime substrate and 2-OG, FIG. 7
T1 construct: FIH and GST-tagged HIF-1α 786-826 were prepared as described previously; made in house
Method: The assay of FIH activity was carried out by mixing 1 mM DTT, 0.6 mg/ml catalase, 2-OG, substrate and 50 mM Tris/HCl pH 7.5 to a final volume of 88 μl warming to 37° C. for 5 minutes in a water bath. Simultaneously, the enzyme and iron (prepared as 500 mM stock in 20 mM HCl, and diluted with water) were mixed at room temperature for 3 minutes. Reaction was initiated by addition of 12 μl of enzyme/iron mix to the substrate/cofactor mix. The reaction was stopped by addition of 200 μl 0.5M HCl; derivatisation was then achieved by the addition of 100 μl 10 mg/ml OPD in 0.5M HCl, and heating for 10 minutes at 95° C. in a heating block.

PHD2 = target: T2, PHD2 (Homo sapiens, UniProt Q9GZT9); assay: PHD2 activity assay: 2-OG consumption detected by OPD derivatisation and fluorescence; format: biochemical; conditions: inhibitor 1 mM; Tris and HEPES buffers; FIG. 9
T2 construct: a form of the enzyme that has had the first 180 amino acids (including those containing a MYND finger motif) removed; made in house; host or cells: Escherichia coli BL21(DE3)
Text: The PHD2 used was a form of the enzyme that has had the first 180 amino acids (including those containing a MYND finger motif) removed. Thus the enzyme, after removal of the affinity tag, has a N-terminus of […]; we have found this form of PHD2 to be preferred in the in vitro assays. The enzyme was expressed from the pET28a(+) vector (Novagen), with the gene cloned between NheI and BamHI restriction sites. Growth and induction were using standard techniques, in that the pET28a(+) vector was transformed into BL21(DE3) Escherichia coli cells, and grown in 2TY medium at 37° C. until the absorbance of the solution of 600 nm was 0.8. IPTG was added to a final concentration of 0.5 mM and growth was continued for three hours. Affinity purification using Novagen His-Bind resin was as per the manufacturers instructions.
The assay was carried out as for the FIH, but the buffer used was 50 mM HEPES pH7.0.

T1 sequence (Q9NWT6 whole entry): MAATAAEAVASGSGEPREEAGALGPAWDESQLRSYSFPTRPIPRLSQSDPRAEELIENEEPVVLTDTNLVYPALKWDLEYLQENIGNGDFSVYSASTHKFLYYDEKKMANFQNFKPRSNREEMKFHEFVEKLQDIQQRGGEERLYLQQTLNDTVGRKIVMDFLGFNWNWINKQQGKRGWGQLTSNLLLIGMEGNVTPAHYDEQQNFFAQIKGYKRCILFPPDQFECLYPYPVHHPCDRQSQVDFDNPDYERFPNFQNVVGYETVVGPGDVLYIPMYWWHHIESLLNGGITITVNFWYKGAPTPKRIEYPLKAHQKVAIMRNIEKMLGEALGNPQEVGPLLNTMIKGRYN
T2 sequence (Q9GZT9 with tags, fused parts or gaps): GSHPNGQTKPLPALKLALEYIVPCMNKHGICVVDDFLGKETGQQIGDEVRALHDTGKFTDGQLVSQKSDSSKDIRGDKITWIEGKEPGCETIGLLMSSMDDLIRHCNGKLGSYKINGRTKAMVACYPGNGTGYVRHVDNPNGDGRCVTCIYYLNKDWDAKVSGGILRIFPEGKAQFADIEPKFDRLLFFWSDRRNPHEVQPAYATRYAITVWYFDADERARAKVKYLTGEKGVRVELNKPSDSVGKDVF

SMILES | effect on 2-OG consumption by FIH (FIH) | IC50 (FIH) | inhibition of PHD2 (PHD2)
O=C(O)c1c[nH]c2c(ccc3cccnc32)c1=O [FG0041] | eliminated the 2-OG consumption by FIH |  | 
O=C(O)CNC(=O)C(=O)O [N-oxalylglycine] | eliminated the 2-OG consumption by FIH | 40 µM | 
O=C(O)C(=O)N[C@H](Cc1ccccc1)C(=O)O [NOFD, N-oxalyl-D-phenylalanine] |  |  | little, if any, inhibition of PHD2
